Source: patent US20030134848A1, “Substituted 1-aza-2-imino-heterocycles and their use as nicotinic acetylcholin receptors activators” (priority 2000, published 2003)
Read-outs that look alike come from different tables or passages of the source.

Assays:
[1] = biological target: α1β1γδ subtype of nicotinic acetylcholine receptors (Rattus norvegicus, UniProt P18916+P25108+P25110); assay: biochemical; format: binding; conditions: for Ki: read-out: Affinities for receptors Ki α1β1γδ, rat muscle extract, [3H]-α-Bgt 1 nM
Sequence of α1β1γδ subtype of nicotinic acetylcholine receptors (P25109 24-501): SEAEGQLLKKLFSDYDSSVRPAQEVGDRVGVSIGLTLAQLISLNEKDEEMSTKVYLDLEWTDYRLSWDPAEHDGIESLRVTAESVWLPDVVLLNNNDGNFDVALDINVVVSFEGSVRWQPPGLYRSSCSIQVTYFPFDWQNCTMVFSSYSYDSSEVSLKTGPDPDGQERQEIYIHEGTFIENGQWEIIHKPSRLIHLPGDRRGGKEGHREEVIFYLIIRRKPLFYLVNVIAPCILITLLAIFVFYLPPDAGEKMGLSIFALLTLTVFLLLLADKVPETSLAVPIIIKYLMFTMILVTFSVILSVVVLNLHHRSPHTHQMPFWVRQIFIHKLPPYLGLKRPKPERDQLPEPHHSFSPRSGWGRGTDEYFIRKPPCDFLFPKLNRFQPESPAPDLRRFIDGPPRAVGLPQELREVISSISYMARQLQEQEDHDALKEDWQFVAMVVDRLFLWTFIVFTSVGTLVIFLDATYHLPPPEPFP
Sequence of α1β1γδ subtype of nicotinic acetylcholine receptors (P25110 22-517): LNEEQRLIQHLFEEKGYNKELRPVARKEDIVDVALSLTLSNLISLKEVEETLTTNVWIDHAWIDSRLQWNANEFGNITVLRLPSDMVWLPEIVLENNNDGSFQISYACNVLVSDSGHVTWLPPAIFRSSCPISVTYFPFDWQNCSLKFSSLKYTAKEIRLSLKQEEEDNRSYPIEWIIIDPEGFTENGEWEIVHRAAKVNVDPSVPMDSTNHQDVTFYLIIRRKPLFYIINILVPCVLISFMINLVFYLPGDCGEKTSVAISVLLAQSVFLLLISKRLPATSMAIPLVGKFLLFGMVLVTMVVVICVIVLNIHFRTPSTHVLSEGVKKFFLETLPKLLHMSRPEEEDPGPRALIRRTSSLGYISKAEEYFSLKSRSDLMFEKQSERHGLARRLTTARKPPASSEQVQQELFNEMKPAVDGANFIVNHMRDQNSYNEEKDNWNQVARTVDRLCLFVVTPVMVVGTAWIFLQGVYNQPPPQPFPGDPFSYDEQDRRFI
Sequence of α1β1γδ subtype of nicotinic acetylcholine receptors (P25108 21-457): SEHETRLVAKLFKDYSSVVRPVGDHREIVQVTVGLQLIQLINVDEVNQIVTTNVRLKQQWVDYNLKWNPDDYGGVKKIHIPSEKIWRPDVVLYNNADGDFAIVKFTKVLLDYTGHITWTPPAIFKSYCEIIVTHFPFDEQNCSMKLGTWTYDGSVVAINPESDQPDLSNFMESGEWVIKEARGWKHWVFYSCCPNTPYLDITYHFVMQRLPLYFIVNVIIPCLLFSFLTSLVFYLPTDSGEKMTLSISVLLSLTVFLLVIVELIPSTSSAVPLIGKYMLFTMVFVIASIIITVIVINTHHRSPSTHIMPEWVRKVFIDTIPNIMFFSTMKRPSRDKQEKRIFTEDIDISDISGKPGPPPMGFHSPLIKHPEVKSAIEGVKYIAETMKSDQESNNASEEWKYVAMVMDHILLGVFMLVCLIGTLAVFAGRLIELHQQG
Sequence of α1β1γδ subtype of nicotinic acetylcholine receptors (P18916 23-519): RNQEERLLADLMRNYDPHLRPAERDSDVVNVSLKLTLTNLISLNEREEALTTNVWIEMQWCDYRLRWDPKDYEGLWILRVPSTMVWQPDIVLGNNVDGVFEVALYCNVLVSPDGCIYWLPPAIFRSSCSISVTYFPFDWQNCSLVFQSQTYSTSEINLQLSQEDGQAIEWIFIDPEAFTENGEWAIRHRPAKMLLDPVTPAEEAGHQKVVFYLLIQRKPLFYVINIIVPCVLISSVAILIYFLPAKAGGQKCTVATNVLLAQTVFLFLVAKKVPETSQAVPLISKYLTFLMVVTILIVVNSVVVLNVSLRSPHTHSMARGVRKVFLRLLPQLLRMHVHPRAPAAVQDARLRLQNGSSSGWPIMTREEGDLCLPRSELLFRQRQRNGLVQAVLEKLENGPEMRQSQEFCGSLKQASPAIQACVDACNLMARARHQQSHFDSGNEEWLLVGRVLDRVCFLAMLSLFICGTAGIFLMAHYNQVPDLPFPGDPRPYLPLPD
Excerpt: (§1) The methods for evaluating the binding capabilities of the compounds at nicotinic acetylcholine receptors are different by subtypes of receptors. The binding capabilities of the compounds at α4β2 nicotinic acetylcholine receptors are examined using rat brain membrane obtained from whole homogenized brain, and determining the inhibiting rate of the compounds against [^3H]-cytisine binding to said brain membrane. Furthermore, the binding capabilities of the compounds at α1β1γδ nicotinic acetylcholine receptors are examined using homogenized rat muscle, and determining the inhibiting rate of the compounds against [^3H]-α-bungarotoxin binding to said muscle homogenate.
The affinity of the compounds of the present invention to α1β1γδ subtype of nicotinic acetylcholine receptors was measured by the following method, which was modified method described by Garcha H. S., Thomas P., Spivak C. E., Wonnacott S. & Stolerman I. P., Psychropharmacology, 110, 347-354 (1993).
(1) Preparation of Rat Skeletal Muscles Containing α1β1γδ Subtype of Nicotinic Acetylcholine Receptors
The substantially same animals described in the Biological Experiment 1 were used.
The isolation of α1β1γδ subtype of nicotinic acetylcholine receptors was performed as follow. That is, rat posterior skeletal muscles were isolated just after sacrificed by decapitation, washed with ice-cooled saline solution and then frozen at −80° C. with liquid nitrogen and stored till using. After thawing the frozen muscles, tissue was homogenized (40% w/v) with buffer solution [2.5 mM of sodium phosphate buffer (pH:7.2), 90 mM of NaCl, 2 mM of KCl, 1 mM of EDTA, 2 mM of benzamidine, 0.1 mM of benzethonium chloride, 0.1 mM of PMSF, 0.01% of sodium azide] in Waring blender (Waring blender 34BL97; WARING PRODUCTS DIVISION DYNAMICS CORPORATION OF AMERICA) for 60 seconds. The homogenate were centrifuged under 20,000×G for 60 minutes at 4° C. The supernatant was separated and the resulting pellet was added to the same buffer (1.5 ml/g wet weight), and homogenized under the same conditions. Triton X100 (2% w/v) was added and the mixture was stirred for 3 hours at 4° C. The centrifugation at 100,000×G for 60 minutes at 4° C. yielded the rat muscle extract as supernatant. This was stored at 4° C. for up to 4 weeks, and used for binding assays at receptors.
(2) Experiments of α1β1γδ Subtype of Nicotinic Acetylcholine Receptors Binding
Receptors binding experiments were performed as follow. That is, the extract of rat muscle containing 600-900 μg of protein was added to test tubes containing test compounds and incubated for 15 minutes at 37° C. Then, to this mixture was added 1 nM of [^3H]-α-bungarotoxin (α-Bgt) and further incubated for 2 hours. The samples were isolated by vacuum filtration onto Whatman GF/B filters, which were prerinsed with 0.5% polyethylenimine just prior to sample filtration, using Brandel multi manifold cell harvester. The filters were rapidly rinsed with washing solution (10 mM of KH2PO4, 150 mM of NaCl, pH 7.2, room temperature) (5×1 ml). The filters were counted in 3 ml of clearsol I (Nacalai Tesque Inc.). The determination of nonspecific binding was incubated in the presence of 1 μM α-Bgt. The solutions containing α-Bgt (labeled/non-labeled) were prepared by using buffer solution containing 0.25% of BSA. In the receptor binding experiments, said buffer solution was added for adjusting the final concentration of BSA to be 0.05%.
The analyses of the experimental results were conducted by the same way as described in the Biological Experiment 1.

[2] = biological target: T1, α4β2 subtype of nicotinic acetylcholine receptors (Rattus norvegicus, UniProt P09483+P12390); assay: Binding assay at α4β2 subtype of nicotinic acetylcholine receptors ([3H]-cytisine, rat brain membrane)
T1 construct: rat brain membrane obtained from whole homogenized brain; from tissue; host or cells: whole brain of Fischer-344 male rats, membrane fraction
T1 sequence (P09483 31-630): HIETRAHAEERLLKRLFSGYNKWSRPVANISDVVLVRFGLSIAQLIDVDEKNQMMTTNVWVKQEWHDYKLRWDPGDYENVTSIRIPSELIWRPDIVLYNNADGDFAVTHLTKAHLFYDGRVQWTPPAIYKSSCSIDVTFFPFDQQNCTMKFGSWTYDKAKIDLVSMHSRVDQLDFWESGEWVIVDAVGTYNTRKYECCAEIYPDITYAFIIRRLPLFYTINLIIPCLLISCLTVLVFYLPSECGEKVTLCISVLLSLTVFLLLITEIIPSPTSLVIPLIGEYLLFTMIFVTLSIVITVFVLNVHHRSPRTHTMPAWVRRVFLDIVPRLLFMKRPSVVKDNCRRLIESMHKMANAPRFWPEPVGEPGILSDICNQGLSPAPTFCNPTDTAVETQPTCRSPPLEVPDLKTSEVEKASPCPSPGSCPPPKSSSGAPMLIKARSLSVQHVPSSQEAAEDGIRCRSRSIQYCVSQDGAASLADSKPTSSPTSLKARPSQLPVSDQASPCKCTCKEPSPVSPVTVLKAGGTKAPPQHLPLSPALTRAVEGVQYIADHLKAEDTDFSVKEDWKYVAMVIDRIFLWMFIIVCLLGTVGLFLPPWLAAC
T1 sequence (P12390 25-500): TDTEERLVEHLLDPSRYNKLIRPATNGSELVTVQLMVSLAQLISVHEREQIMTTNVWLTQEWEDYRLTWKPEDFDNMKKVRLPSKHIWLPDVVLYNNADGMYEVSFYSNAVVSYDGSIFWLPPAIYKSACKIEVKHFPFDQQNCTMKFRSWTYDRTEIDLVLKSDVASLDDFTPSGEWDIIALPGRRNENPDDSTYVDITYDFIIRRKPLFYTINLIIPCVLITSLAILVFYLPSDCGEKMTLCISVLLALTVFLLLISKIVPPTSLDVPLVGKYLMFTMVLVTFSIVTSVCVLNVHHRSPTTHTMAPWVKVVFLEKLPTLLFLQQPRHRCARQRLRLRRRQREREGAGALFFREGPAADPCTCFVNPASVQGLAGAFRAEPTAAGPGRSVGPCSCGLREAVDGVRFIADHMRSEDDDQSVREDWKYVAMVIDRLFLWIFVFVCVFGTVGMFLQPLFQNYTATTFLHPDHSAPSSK
Excerpt: as §1
The affinity of the compounds of the present invention to α4β2 subtype of nicotinic acetylcholine receptors was performed by the following method, which was modified method described by Pabreza L. A., Dhawan S. & Kellar K. J., Mol. Pharm., 39, 9-12 (1990), and by Anderson D. J. & Arneric S. P., Eur. J. Pharm., 253, 261-267 (1994).
(1) Preparation of Rat Brain Membrane Containing α4β2 Subtype of Nicotinic Acetylcholine Receptors
Fischer-344 strain male rats (body weight: 200-240 g; 9 weeks old) obtained from Charles River Japan were used. Rats were housed in the breeding cage controlled of the room temperature at 23±1° C., and the humidity of 55±5% for 1 to 4 weeks. Rats (3 to 4 rats per a cage) were housed with lights on for 12 hours daily (from 7:00 to 19:00), and allowed free access to food and water.
Preparation of rat brain membrane containing α4β2 subtype of nicotinic acetylcholine receptors was performed as follow. That is, rat brains were isolated just after sacrificed by decapitation, washed with ice-cooled saline solution and then frozen at −80° C. with liquid nitrogen and stored till using. After thawing the frozen brain, the brain was homogenized in 10 volumes of ice-cooled buffer solution (50 mM of Tris-HCl, 120 mM of NaCl, 5 mM of KCl, 1 mM of MgCl2, 2 mM of CaCl2; pH 7.4; 4° C.) using homogenizer (HG30, Hitachi Kohki Ltd.) for 30 seconds, and the homogenate were centrifuged under 1,000×G for 10 minutes at 4° C. The resulting supernatant was separated and the pellet was homogenized again with half volume of aforementioned prior buffer solution and centrifuged under the same conditions. Combined supernatant was further centrifuged under 40,000×G for 20 minutes at 4° C. The pellet was suspended in buffer solution and used for binding assays at receptors.
(2) Experiments of α4β2 Subtype of Nicotinic Acetylcholine Receptors Binding
Suspensions of membrane pellets containing 400-600 μg of protein were added to test tubes containing test compounds and [^3H]-cytisine (2 nM) in a final volume of 200 μl and incubated for 75 minutes in ice-cooled bath. The samples were isolated by vacuum filtration onto Whatman GF/B filters, which were prerinsed with 0.5% polyethylenimine just prior to sample filtration, using Brandel multi manifold cell harvester. The filters were rapidly washed with buffer solution (3×1 ml). The filters were counted in 3 ml of clearsol I (Nacalai Tesque Inc.).
The analyses of the experimental results were conducted by using the Accufit Competition Program (Beckman Ltd.).

[3] = rat brain membrane, [3H]-cytisine 2 nM, read-out: Affinities for receptors Ki α4β2
[4] = read-out: control % of [3H]-α-Bgt binding

Compound	Ki [1] [µM]	Ki [2, 3] [µM]	Ki [2] [µM]	further results
Nc1nccn1CCc1ccnnc1 [Compound 34, 2-amino-1-[2-(4-pyridazinyl)ethyl]imidazole]	1270	0.068	–	–
Nc1nccn1CCc1cccnc1 [Compound 14, 2-amino-1-[2-(3-pyridyl)ethyl]imidazole]	223	0.0035	–	–
N=C1NCCCN1CCc1ccc(Cl)nc1 [Compound 12, 1-[2-(6-chloro-3-pyridyl)ethyl]-2-imino-1,2,3,4,5,6-hexahydro-pyrimidine]	12	–	0.0014	–
Nc1nccn1CCc1cncnc1 [Compound 29, 2-amino-1-[2-(5-pyrimidyl)ethyl]imidazole]	447	–	0.006	–
Nc1nccn1CCc1cnc(Cl)s1 [Compound 23, 2-amino-1-[2-(2-chloro-5-thiazolyl)ethyl]imidazole]	44	–	0.0085	–
Nc1nccn1CCc1cccnn1 [Compound 30, 2-amino-1-[2-(3-pyridazinyl)ethyl]imidazole]	80	0.04	–	–
Nc1nccn1CCc1cncc(Br)c1 [Compound 25, 2-amino-1-[2-(5-bromo-3-pyridyl)ethyl]imidazole]	36	0.002	–	–
Cc1cncc(CCn2ccnc2N)c1 [Compound 27, 2-amino-1-[2-(5-methyl-3-pyridyl)ethyl]imidazole]	339	0.021	–	–
Nc1nccn1CCc1cnc(Cl)c(Cl)c1 [Compound 13, 2-amino-1-[2-(5,6-dichloro-3-pyridyl)ethyl]-imidazole]	40	–	0.0031	–
Cc1ccc(CCn2ccnc2N)cn1 [Compound 11, 2-amino-1-[2-(6-methyl-3-pyridyl)ethyl]imidazole]	1150	0.021	–	–
Nc1nccn1CCc1cnccn1 [Compound 31, 2-amino-1-[2-(2-pyrazinyl)ethyl]imidazole]	–	–	–	remaining activity at 100 µM [1, 4]: 110%; remaining activity at 1000 µM [1, 4]: 53%; remaining activity at 1 µM ([2]; 1 μM of test compound, rat brain membrane, read-out: control % of [3H]-cytisine binding): 75%; remaining activity at 10 µM ([2]; 10 μM of test compound, rat brain membrane, read-out: control % of [3H]-cytisine binding): 22%
